Tests used:
Format in all cases: in vivo, BALB/c mice
Details in all cases: 5 days, vs OVA-sensitized group
[1] = test system: IgE; assay: Analysis of IgE in BALF (Mouse IgE ELISA), OVA-induced asthma
Method: In test groups, the animals determined to be healthy during the acclimation period were ranked by measuring the weight, and were randomly grouped so that the average weight of each group was uniform. The animals were divided into a total of 9 groups: a control group; a control group with OVA-induced asthma; a positive control group; groups administered with each of 50 mg/kg, 125 mg/kg and 250 mg/kg of oleic acid; and groups administered with each of 5 mg/kg, 25 mg/kg and 50 mg/kg of palmitic acid. The animals were sensitized via intraperitoneal injection of OVA once a week for 2 weeks after the acclimation period. During 5 days of week 3, dexamethasone (DEX) and the test substances oleic acid and palmitic acid were orally administered in the morning and 5% OVA solution was inhaled in the afternoon. The test substance was orally administered in an amount of 28 μL per weight (g) of the experimental animal, and OVA for sensitization was administered in a constant amount regardless of the weight. After 5 days of administration, autopsy was performed the next day. Immunoglobulin E (IgE) is a type of protein called antibody that plays an important role in allergic reactions. When IgE is exposed to a certain substance, the immune system begins to produce IgE in order to protect the body. […] 50 μL of a stop solution was added to each well, and the absorbance at 450 nm was measured.

[2] = test system: eosinophils, mucus and epithelial hyperplasia; assay: H&E staining of lung tissue, OVA-induced asthma
Method: In test groups, the animals determined to be healthy during the acclimation period were ranked by measuring the weight, and were randomly grouped so that the average weight of each group was uniform. The animals were divided into a total of 9 groups: a control group; a control group with OVA-induced asthma; a positive control group; groups administered with each of 50 mg/kg, 125 mg/kg and 250 mg/kg of oleic acid; and groups administered with each of 5 mg/kg, 25 mg/kg and 50 mg/kg of palmitic acid. The animals were sensitized via intraperitoneal injection of OVA once a week for 2 weeks after the acclimation period. During 5 days of week 3, dexamethasone (DEX) and the test substances oleic acid and palmitic acid were orally administered in the morning and 5% OVA solution was inhaled in the afternoon. The test substance was orally administered in an amount of 28 μL per weight (g) of the experimental animal, and OVA for sensitization was administered in a constant amount regardless of the weight. After 5 days of administration, autopsy was performed the next day. Storage of tissue: ½ of the autopsy tissue was frozen quickly in liquid nitrogen, stored in an ultralow-temperature freezer or liquid nitrogen container (about −75 ° C.), and used for PCR/Western blotting, and the remaining ½ was stored in 10% formalin solution and used for histopathology and immunohistochemistry (IHC). […]

[3] = test system: mucus; assay: PAS staining of lung tissue, OVA-induced asthma
Method: In test groups, the animals determined to be healthy during the acclimation period were ranked by measuring the weight, and were randomly grouped so that the average weight of each group was uniform. The animals were divided into a total of 9 groups: a control group; a control group with OVA-induced asthma; a positive control group; groups administered with each of 50 mg/kg, 125 mg/kg and 250 mg/kg of oleic acid; and groups administered with each of 5 mg/kg, 25 mg/kg and 50 mg/kg of palmitic acid. The animals were sensitized via intraperitoneal injection of OVA once a week for 2 weeks after the acclimation period. During 5 days of week 3, dexamethasone (DEX) and the test substances oleic acid and palmitic acid were orally administered in the morning and 5% OVA solution was inhaled in the afternoon. The test substance was orally administered in an amount of 28 μL per weight (g) of the experimental animal, and OVA for sensitization was administered in a constant amount regardless of the weight. After 5 days of administration, autopsy was performed the next day.
Storage of tissue: ½ of the autopsy tissue was frozen quickly in liquid nitrogen, stored in an ultralow-temperature freezer or liquid nitrogen container (about −75 ° C.), and used for PCR/Western blotting, and the remaining ½ was stored in 10% formalin solution and used for histopathology and immunohistochemistry (IHC). […]

CCCCCCCC/C=C\CCCCCCCC(=O)O [oleic acid]
dose-dependently decreased: quantity of IgE ([1]; oleic acid 50, 125, 250 mg/kg oral, FIG. 13) | eosinophils, mucus and epithelial hyperplasia (H&E staining) ([2]; oleic acid 50, 125, 250 mg/kg oral, FIG. 15) | mucus (PAS staining) ([3]; oleic acid 50, 125, 250 mg/kg oral, FIG. 17)

CCCCCCCCCCCCCCCC(=O)O [palmitic acid]
dose-dependently decreased: quantity of IgE ([1]; palmitic acid 5, 25, 50 mg/kg oral, FIG. 14) | eosinophils, mucus and epithelial hyperplasia (H&E staining) ([2]; palmitic acid 5, 25, 50 mg/kg oral, FIG. 16) | mucus (PAS staining) ([3]; palmitic acid 5, 25, 50 mg/kg oral, FIG. 18)

Reference: US20200246298A1, “Composition for Preventing or Treating Asthma Comprising Fatty Acid as Active Ingredient” (Dongshin University Industry-Academy Cooperation, priority 2019, published 2020)
